Experimental findings from patent US5126336A, “Antibiotic C-3 catechol-substituted cephalosporin compounds, compositions and method of use thereof” (Bristol-Myers Squibb Company, priority 1990, dated 1992) are described below.

For one assay, the system named is E. coli Juhl. Put plainly: In vivo antibacterial activity, E. coli Juhl infection. The following applies: Escherichia coli, mice, im just after bacterial challenge, read-out: PD50. On the procedure: (§1) In vivo antibacterial activity was determined against three bacterial infections (S. aureus Smith, E. coli Juhl and P. aeruginosa A9843A) by intramuscular administration to mice just after the bacterial challenge. PD50 values are summarized in Table 3 in comparsion with the MIC values against the corresponding organisms.

Assay [1] has as its system P. aeruginosa A9843A. As to the kind of experiment: MIC, agar dilution. Format: cell-based. The settings on record: Pseudomonas aeruginosa, A9843A, 18 h. On the procedure:
(§2) Minimum inhibitory concentrations (MICs) of the present series of cephalosporins were determined against 32 strains of test organisms by two-fold serial agar dilution method in Mueller-Hinton agar. Geometric means of MICs were calculated against six groups of the test organisms which are classified as follows and summarized in Table 1.
as §1
(§3) Medium; MuellerHinton agar (pH = 7.2)
(§4) Incubation temperature: 32° C., 18 hr
(§5) Inoculum size; 10^6 cells/ml

The test system of another assay is E. coli Juhl A15119. As to the kind of experiment: MIC, agar dilution. Format: cell-based. The settings on record: Escherichia coli, JUHLA15119, 18 h; E. coli Juhl (Table 3); read-out: MIC. On the procedure:
as §2, §1, §3, §4, §5

In assay [2] the test system is S. aureus Smith. As to the kind of experiment: MIC, agar dilution. Format: cell-based. The settings on record: Staphylococcus aureus, 18 h; S. aureus Smith (Table 3); read-out: MIC. On the procedure: as §2, §1, §3, §4, §5
For orientation: In agar dilution, organisms are placed on agar that contains the substance at set levels.

For assay [3], the system named is Gn-II: M.morganii (1), Ent. cloacae (2) and Ser. marcescens (2). Put plainly: MIC, two-fold serial agar dilution, Gn-II. It counts as cell-based. The following applies: for MIC: read-out: Geometric mean of MIC. On the procedure:
as §2
Gn-II M.morganii (1), Ent. cloacae (2) and Ser.

In assay [4] the test system is P. aeruginosa A9843A. Put plainly: In vivo antibacterial activity, P. aeruginosa A9843A infection. Also on record: species or system mice. The following applies: Pseudomonas aeruginosa, A9843A, in Mus musculus, im, read-out: PD50. On the procedure:
as §1

Assay [5] concerns Gn-Ia: Cephalothin(CET)-sensitive E. coli (2), Kl. pneumoniae (1) and Pr. mirabilis (2). Put plainly: MIC, two-fold serial agar dilution, Gn-Ia. It counts as cell-based. The following applies: 5 strains, read-out: Geometric mean of MIC. The method, then: as §2
Gn-Ia Cephalothin(CET)-sensitive E. coli (2), Kl.
pneumoniae (1) and Pr. mirabilis (2).

Assay [6] deals with Gp-Ib: Penicillin(PC)-resistant S. aureus (5). Put plainly: MIC, two-fold serial agar dilution, Gp-Ib. The settings on record: Staphylococcus aureus, 5 strains, read-out: Geometric mean of MIC. It counts as cell-based. On the procedure: as §2
Gp-Ib Penicillin(PC)-resistant S. aureus (5).

The test system of assay [7] is Gn-Ib: Cephalothin(CET)-resistant E. coli (3) and Kl. pneumoniae (2). Put plainly: MIC, two-fold serial agar dilution, Gn-Ib. Format: cell-based. The settings on record: Escherichia coli. The method, then:
as §2
Gn-Ib Cephalothin(CET)-resistant E. coli (3) and Kl.

Assay [8] concerns S. aureus Smith. As to the kind of experiment: In vivo antibacterial activity, S. aureus Smith infection. The settings on record: Staphylococcus aureus, mice, im just after bacterial challenge, read-out: PD50. On the procedure:
as §1

In assay [9] the test system is Gp-Ia: Penicillin(PC)-sensitive S. aureus (5 strains). As to the kind of experiment: MIC, two-fold serial agar dilution, Gp-Ia. It counts as cell-based. The following applies: Staphylococcus aureus, read-out: Geometric mean of MIC. On the procedure:
as §2
Gp-Ia Penicillin(PC)-sensitive S. aureus (5 strains).

For assay [10], the system named is Gn-III: Ps. aeruginosa (7). As to the kind of experiment: MIC, two-fold serial agar dilution, Gn-III. Format: cell-based. The settings on record: Pseudomonas aeruginosa, Gn-III, 7 strains, read-out: Geometric mean of MIC. The method, then:
as §2
Gn-III Ps. aeruginosa (7).

Where [11] appears, read: read-out: Geometric mean of MIC, Gn-Ib, 5 strains, Mueller-Hinton agar.

Converted amounts (≈) assume the structure as drawn. Where two headings read alike, the source gives them in different places.

In general, MIC refers to the lowest concentration that inhibits growth of the organism. Consider `CC(C)(O/N=C(\C(=O)NC1C(=O)N2C(C(=O)[O-])=C(/C=C/C[N+]3(C)Cc4cc(O)c(O)cc4C3)CSC12)c1csc(N)n1)C(=O)O` (stereo not drawn) [Compound Ia, 7-[(Z)-2-(2-Aminothiazol-4-yl)-2-(1-carboxy-1-methylethoxy-imino)acetamido]-3-[(E)-3-(5,6-dihydroxy-2-methyl-2-iso-indolinio)-1-propen-1-yl]-3-cephem-4-carboxylate], for which the figures for the ED50 in the assay with E. coli Juhl, with P. aeruginosa A9843A [4] and in the assay on S. aureus Smith [8] were 0.008 mg/kg, 2 mg/kg and 0.86 mg/kg, respectively. The MIC against P. aeruginosa A9843A [1] was determined as 1.6 µg/mL (≈ 2.43 µM); in the assay with E. coli Juhl A15119, 0.8 µg/mL (≈ 1.21 µM); in the assay with S. aureus Smith [2] it was 12.5 µg/mL (≈ 19 µM); in assay [3], 0.69 µg/mL (≈ 1.05 µM); in assay [5] (Mueller-Hinton agar) it was 0.2 µg/mL (≈ 0.304 µM); in [5] (second run), 0.23 µg/mL (≈ 0.349 µM). Besides, the MIC in assay [6] (Mueller-Hinton agar) was 12.5 µg/mL (≈ 19 µM); in assay [6] (second run), 13 µg/mL (≈ 19.7 µM); in assay [7] (setting [11]), 0.23 µg/mL (≈ 0.349 µM); in [7] (read-out: Geometric mean of MIC, second run, Gn-Ib, 5 strains), 0.23 µg/mL (≈ 0.349 µM); in [9] (Mueller-Hinton agar) it was 12.5 µg/mL (≈ 19 µM); in [9] (second run) it was 13 µg/mL (≈ 19.7 µM). The MIC in assay [10] (Mueller-Hinton agar) amounted to 1.3 µg/mL (≈ 1.97 µM); in assay [10] (second run) it was 0.33 µg/mL (≈ 0.501 µM). Besides, the “Geometric mean of MIC” value in assay [3] (second run, Gn-II, 5 strains) stood at 0.69 µg/mL.
In the case of `CC(C)(O/N=C(\C(=O)NC1C(=O)N2C(C(=O)[O-])=C(/C=C\C[N+]3(C)Cc4cc(O)c(O)cc4C3)CS[C@H]12)c1csc(N)n1)C(=O)O` (stereo partly drawn) [Compound Ib, 7-[(Z)-2-(2-aminothiazol-4-yl)-2-(1-carboxy-1-methylethoxy-imino)acetamido]-3-[(Z)-3-(5,6-dihydroxy-2-methyl-2-isoindolinio)-1-propen-1-yl]-3-cephem-4-carboxylate], the ED50 worked out at 0.1 mg/kg in the assay with E. coli Juhl, 2 mg/kg in the assay with P. aeruginosa A9843A [4] and 3.8 mg/kg in the assay with S. aureus Smith [8]. The MIC against P. aeruginosa A9843A [1] stood at 1.6 µg/mL (≈ 2.43 µM); in the assay on E. coli Juhl A15119, 0.8 µg/mL (≈ 1.21 µM); in the assay with S. aureus Smith [2], 25 µg/mL (≈ 38 µM); in assay [3] it was 0.91 µg/mL (≈ 1.38 µM); in assay [5] (Mueller-Hinton agar) it was 0.46 µg/mL (≈ 0.698 µM); in assay [6] (Mueller-Hinton agar), 50 µg/mL (≈ 75.9 µM). Also, the MIC in assay [7] (setting [11]) is 0.26 µg/mL (≈ 0.395 µM); in [9] (Mueller-Hinton agar), 25 µg/mL (≈ 38 µM); in assay [10] (Mueller-Hinton agar) it was 1.4 µg/mL (≈ 2.13 µM).
Regarding `CO/N=C(\C(=O)NC1C(=O)N2C(C(=O)[O-])=C(/C=C/C[N+]3(C)Cc4cc(O)c(O)cc4C3)CS[C@H]12)c1csc(N)n1` (stereo partly drawn) [Compound Id, 7-[(Z)-2-(2-aminothiazol-4-yl)-2-methoxyiminoacetamido]-3-[(E)-3-(5,6-dihydroxy-2-methyl-2-isoindolinio)-1-propen-1-yl]-3-cephem-4-carboxylate], the ED50 in the assay with E. coli Juhl worked out at 0.012 mg/kg; in the assay on P. aeruginosa A9843A [4], 6.8 mg/kg; in the assay on S. aureus Smith [8] it was 0.33 mg/kg. In addition, the MIC against P. aeruginosa A9843A [1] worked out at 3.1 µg/mL (≈ 5.28 µM); with E. coli Juhl A15119, 0.4 µg/mL (≈ 0.682 µM); with S. aureus Smith [2], 1.6 µg/mL (≈ 2.73 µM); in assay [3], 0.79 µg/mL (≈ 1.35 µM); in [5] (Mueller-Hinton agar) it was 0.15 µg/mL (≈ 0.256 µM); in assay [6] (Mueller-Hinton agar), 3.1 µg/mL (≈ 5.28 µM). In addition, the MIC worked out at 0.46 µg/mL (≈ 0.784 µM) in assay [7] (setting [11]), 1.6 µg/mL (≈ 2.73 µM) in assay [9] (Mueller-Hinton agar) and 2.6 µg/mL (≈ 4.43 µM) in [10] (Mueller-Hinton agar).
For the molecule `CO/N=C(\C(=O)NC1C(=O)N2C(C(=O)[O-])=C(/C=C\C[N+]3(C)Cc4cc(O)c(O)cc4C3)CS[C@H]12)c1csc(N)n1` (stereo partly drawn) [Compound Ie, 7-[(Z)-2-(2-amino-thiazol-4-yl)-2-methoxyiminoacetamido]-3-[(Z)-3-(5,6-dihydroxy-2-methyl-2-isoindolinio)-1-propen-1-yl]-3-cephem-4-carboxylate], the ED50 was found to be 0.025 mg/kg in the assay on E. coli Juhl, 9.9 mg/kg in the assay with P. aeruginosa A9843A [4] and 0.72 mg/kg in the assay on S. aureus Smith [8]. Also, the MIC against P. aeruginosa A9843A [1] is 3.1 µg/mL (≈ 5.28 µM); with E. coli Juhl A15119 it was 0.2 µg/mL (≈ 0.341 µM); in the assay with S. aureus Smith [2] it was 6.3 µg/mL (≈ 10.7 µM); in [3] (Gn-II, 5 strains, Mueller-Hinton agar), 0.91 µg/mL (≈ 1.55 µM); in [5] (Mueller-Hinton agar) it was 0.13 µg/mL (≈ 0.222 µM); in assay [6] (Mueller-Hinton agar), 6.3 µg/mL (≈ 10.7 µM). For the same molecule, the values for the MIC in assay [7] (setting [11]), in [9] (Mueller-Hinton agar) and in assay [10] (Mueller-Hinton agar) were 0.26 µg/mL (≈ 0.443 µM), 4.7 µg/mL (≈ 8.01 µM) and 2.9 µg/mL (≈ 4.94 µM), respectively.
